One substance from patent US11684646B2, “Methods and related compositions for reducing oxidative stress” (Gateway Health Alliances, Inc., priority 2019, dated 2023) can be followed below.

The test system of this data set is Aluminum chloride induced neurotoxicity in Wistar rats. Nature of the data set: Aluminum chloride treated rats: plasma transaminases ASAT (GOT) and ALAT (GPT), hepatic toxicity. Type of data set: in vivo. The method, then:
[formula] I.3. Evaluation of Neuro-Protective Effects of the Hydro-Ethanolic Extract of B. toxisperma Against Aluminum Chloride Induced Neurotoxicity (Animal Model of Neurotoxicity)
Twenty albinos Wistar rats weighing between 230-250 g were used for this experiment in which the treatment lasted 3 days. The experimentation was conducted in the animal house of the Laboratory of Nutrition and Nutritional Biochemistry of the department of Biochemistry (Faculty of Science, University of Yaounde I). Animals were fed with standard feed and drinking water ad libitum.
Rats were divided into 5 groups of 4 rats each. A unique dose of 32.5 mg/kg BW of aluminum trichloride (AlCl3) was administered by intra peritoneal (i.p) route. 24 hours later, different doses of plant extract and vitamin E (reference) were administered by oral route, using a gastro-oesophagian probe once a day for 3 days.
24 hours after the last administration, animals were sacrificed under mild anesthesia in Ether vapor following a 12 hours fasting. The rats' bloods were collected in EDTA tubes. Cervical dislocations were performed immediately after blood collections, to remove the brains which were then rinsed in physiologic solution (0.9% NaCl) and weighed. Plasmas were extracted from the bloods collected and the brains were used to prepare 10% homogenates which served for biochemical analysis.
The blood in EDTA tubes were allowed to stand at room temperature, then centrifuged for 10 minutes at 900 revs/minute, the resulting liquid phase (plasma) was then collected into Eppendorf tubes and stored at −20° C.
1.3.3.3.1. Evaluation of the Activities of the Oxaloglutamate (GOT) and Glutamo-Pyruvate (GPT) Transaminases (Reitman et Franckel, 1957) (Hepatic Toxicity) […]
PROTOCOL: EVALUATION DE L′ACTIVITÉ DE L′ASAT (GOT): 100 μL of substrate solution (annex 3e) were put into tubes, pre-incubated at 37° C. for 5 minutes then 0.02 mL of plasma was added. […] Optical densities were read at 505 nm against a blank (made up of 100 μL of substrate solution and 0.02 mL of NaCl 0.9%) titrated under similar conditions. […]

[1] abbreviates: plasma, AlCl3 32.5 mg/kg i.p., Vit E 100 mg/kg BW/day (VE100).

As to Vitamin E, the “effect on activities of plasma transaminases after aluminum” value (HEEBT 150 and 300 mg/kg BW, vitamin E) is listed as “tend to normalize”. Under setting [1], this substance displayed an ALAT of 60.135 ± 7.453 unité d'ALAT/mL and an ASAT of 76.363 ± 1.868 unité d'ASAT/mL.
